Laboratory results taken from a melting point compilation (Tetko et al.; mined from patent text by program, amines drawn as free bases though some values may be those of a salt).

First: Cc1cccc(Sc2nc(C#N)c(C#N)nc2Cl)c1
Second: Cc1oc(-c2cccc(C#N)c2)nc1CCl
The melting point of the first is higher: 117 to 119 °C for the first, 100 to 101 °C for the second.

First: CC(=O)Nc1ccc(S(N)(=O)=O)cc1[N+](=O)[O-]
Second: CCOC(=O)CNc1c([N+](=O)[O-])cc([N+](=O)[O-])c2ccccc12
The melting point of the first is lower: 182 to 183 °C for the first, > 305 °C for the second.

First: c1ccc2oc(-c3nc(COc4ccc(CCCn5ccnc5)cc4)co3)cc2c1
Second: O=C(CCc1ccc(OCc2ccccc2)cc1)c1ncc(-c2ccccn2)o1
The melting point of the first is higher: 122 to 123 °C for the first, 99 to 100 °C for the second.

Compared with O=C1[C@@H](O)CCN1CC#CCn1ccnc1, Cc1nc2c(O)cccn2c(=O)c1CCO is higher in melting point: 127 to 128 °C for the first, 150 °C for the second.

Compared with O=c1c2c(Cl)cc(Cl)cc2n(Cc2ccccc2)c(=O)n1Cc1cccc(F)c1, O=C(O)c1c(Br)cc(OCc2ccccc2)cc1OCc1ccccc1 is lower in melting point: 112 to 116 °C for the first, 90 to 91 °C for the second.

First: Cc1cc2c(-c3cccc(-c4noc(=O)[nH]4)c3)c(CC(=O)Nc3ccc(F)cc3C(F)(F)F)c(=O)oc2cc1Cl
Second: Cn1c(=O)c(-c2ccc(Cl)cc2Cl)cc2c3cc(-c4nc(NS(C)(=O)=O)no4)ccc3n(C)c21
The melting point of the first is higher: 285 to 287 °C for the first, 263 to 266 °C for the second.

Compared with CS(=O)(=O)c1ccc(N2CC(O)(C(F)(F)F)N=C2c2ccccc2)cc1 (centres undefined), Nc1cnc2ccc(C(F)(F)F)cc2c1-c1ccccc1 is lower in melting point: 189 to 190 °C for the first, 107 to 108 °C for the second.

First: COC(=O)c1ccc(NC(=O)c2ccccc2-c2ccccc2)cc1Cl
Second: NC(=O)Nc1c(C(=O)c2ccccc2)[nH]c2cc(Cl)ccc12
The melting point of the first is lower: 132 to 134 °C for the first, 196 to 200 °C for the second.

Compared with CNC(=O)ON=C1OCCOC1(C)C, CC(=O)[C@H]1CC[C@H]2[C@@H]3CCC4=C/C(=N/OC(=O)[C@@H](NC(=O)OC(C)(C)C)C(C)C)CC[C@]4(C)[C@H]3CC[C@]12C is higher in melting point: 144 to 146 °C for the first, 147 to 149 °C for the second.

First: FC(F)(F)c1cc(-c2ccc(Cl)cc2)nc2c(I)cnn12
Second: NS(=O)(=O)c1ccc(-c2noc(-c3cnn4c(C5CC5)cc(-c5ccc(Cl)cc5)nc34)n2)cc1
The melting point of the first is lower: 155 °C for the first, 260 °C for the second.

Compared with N=C1c2nc[nH]c2N(Cc2ccc(Cl)cc2)C2=NCCN12, Cc1[nH]cnc1CN1CCc2c(c3cccc(F)c3n2C)C1 is lower in melting point: 296 to 299 °C for the first, 188 to 190 °C for the second.

First: CCOC(=O)c1c(O)c2cc(Cl)cnc2n(Cc2ccc(OC)cc2)c1=O
Second: COc1ccc2c(C(=O)O)ccc(OC)c2c1
The melting point of the first is lower: 185 to 187 °C for the first, 227 to 229 °C for the second.

First: O=C(O)CCCCc1cccn2cncc12
Second: COc1ccc(CCCC(O)CCC(=O)O)cc1 (centres undefined)
The melting point of the first is higher: 195 to 197 °C for the first, 67 to 68 °C for the second.

First: Nc1nc(Nc2ccccc2)sc1C=O
Second: NNP(=S)(NN)Oc1ccccc1
The melting point of the first is higher: 212 to 213 °C for the first, 94 to 95 °C for the second.

First: C=CCOc1cc(-n2c(=O)cc(C(F)(F)F)n(C)c2=O)c(F)cc1Br
Second: COc1cn(-c2ccc(-n3cccn3)cc2F)nc(-c2ccnn2-c2cccc(OC(F)(F)F)c2)c1=O
The melting point of the first is lower: 120 °C for the first, 148 to 150 °C for the second.

First: Nc1c(Cl)cc(C(O)CNCCCCCCOCCc2ccc(N3CCOCC3)cc2)cc1Cl (centres undefined)
Second: CCCCCCCCc1cc2c(cc1/C=C/c1ccc(C(=O)O)cc1)CCC(C)(C)CC2
The melting point of the first is lower: 102 to 103 °C for the first, 180 °C for the second.

Compared with CC1(C)Oc2ccc(C#N)cc2[C@@H](NC(=O)c2ccccn2)[C@@H]1O (relative stereo), CCOc1ccccc1C(=O)SSc1ccc([N+](=O)[O-])cc1C(Cl)(Cl)Cl is lower in melting point: 165 °C for the first, 79 to 80 °C for the second.

First: COc1ccc(C2=NN(C3CCCCCC3)C(=O)[C@H]3CC=CC[C@@H]23)cc1OC(F)F (relative stereo)
Second: COc1ccc(C2=NN(C3CCN(C(=O)CN4C(=O)COCC4=O)CC3)C(=O)C(C)(C)C2)cc1OC
The melting point of the first is lower: 83 °C for the first, 210 to 211 °C for the second.

First: CSC(=NC#N)NCCN1CCC(Nc2nc3cccnc3n2Cc2ccc(F)cc2)CC1
Second: Cc1nc(-n2cnn(CCOC(=O)NCc3ccc(F)cc3)c2=O)sc1C(=O)NCc1cccnc1
The melting point of the first is higher: 172 °C for the first, 149 to 150 °C for the second.

Compared with O=C(CCc1ccccc1)N[C@H]1COC1=O, O=C1OC(Cc2ccccc2)CN1c1ccccc1 (centres undefined) is lower in melting point: 104 to 106 °C for the first, 90 °C for the second.

First: CC(=O)Nc1ccc(O)c(CN2CCC(NC(=O)c3ccccc3)CC2)c1
Second: COc1cc(NC(C)=O)c(Cl)cc1NC(=O)N1CCN(Cc2ccccc2)CC1
The melting point of the first is higher: 242 °C for the first, 174 °C for the second.

First: O=C(Nc1cccc2cc(C(=O)N3CCCCC3)[nH]c12)c1cccs1
Second: O=C(Nc1ccc(-n2nc(C(F)(F)F)cc2C(F)(F)F)cc1)c1cccs1
The melting point of the first is lower: 131 to 132 °C for the first, > 230 °C for the second.

First: COc1ccc(NS(=O)(=O)c2ccc(N3CCC(NC[C@H](O)COc4cccc5[nH]c6ccccc6c45)CC3)cc2)cc1OC
Second: COc1ccc(C)cc1NC(=O)Nc1ccc(C2=CCN(C(=O)Nc3cc(OCCO)ccc3Cl)CC2)cc1
The melting point of the first is lower: 58 to 64 °C for the first, 139 to 142 °C for the second.

Compared with CCCOC1(C)CN(C(=O)Nc2ccc(C(F)(F)F)cc2)N=C1c1ccc(Cl)cc1 (centres undefined), CC1(C)NC(=O)N(CC(CSc2ccc(-c3ccc(C(F)(F)F)cc3)cc2)N(O)C=O)C1=O (centres undefined) is higher in melting point: 135 to 138 °C for the first, 172 to 174 °C for the second.

First: CCC(C)Sc1cc(C(=O)O)cc(N)c1Oc1ccccc1 (centres undefined)
Second: CCc1c(C(=O)C(N)=O)c2ccsc2n1Cc1ccccc1
The melting point of the first is higher: 157 to 159 °C for the first, 90 to 92 °C for the second.

Compared with CCOC(=O)n1cc(C=O)c(-c2ccc([N+](=O)[O-])o2)n1, O=[N+]([O-])c1cccc(O)c1CO is lower in melting point: 140 to 141 °C for the first, 97 to 99 °C for the second.

First: CSc1ncnn1C[C@]1(c2ccc(F)cc2F)O[C@@H]1c1ccccc1Cl (relative stereo)
Second: CCOC(=O)c1cn(Cc2c(F)cccc2F)c2sc(-c3ccccc3)c(CBr)c2c1=O
The melting point of the first is lower: 116 to 117 °C for the first, 206 °C for the second.

First: Nc1nc(SC(c2ccccc2)c2ccccc2)c2[nH]cnc2n1
Second: CN(Cc1ccc2c(Br)c(O)ccc2c1)C(=O)c1oc2ccccc2c1CCc1ccccc1
The melting point of the first is higher: 226 to 227 °C for the first, 108 to 110 °C for the second.

Compared with Cc1ccc(C(=O)c2cc([N+](=O)[O-])ccc2N2CCC(C)CC2)cc1, CC1Cc2cc3c(cc2C(c2ccc([N+](=O)[O-])cc2)=NN1C(=O)CCCN)OCO3 (centres undefined) is higher in melting point: 86 °C for the first, 110 to 112 °C for the second.

Compared with O=C(O)Cc1cc2c(c(C(=O)O)c1)NCCC2, O=C(c1ccc(F)cc1O)C1CC1 is lower in melting point: 210 to 211 °C for the first, 58 °C for the second.

First: O=c1ccc2c(-c3ccco3)nccc2[nH]1
Second: c1cc(-n2ccnc2)cc(-n2cnc3cc(-c4ccco4)ccc32)c1
The melting point of the first is higher: > 300 °C for the first, 175 to 177 °C for the second.

First: CCCCCc1cc2cc(O)ccc2c(Oc2ccc(/C=C/C(=O)O)cc2)c1-c1ccccc1
Second: CN(C(=O)OC(C)(C)C)c1cc(Oc2ccc(-c3ccccc3)cc2)ccc1[N+](=O)[O-]
The melting point of the first is lower: 110 to 113 °C for the first, 166 to 167 °C for the second.

First: CCCN(CCC)c1c2c(nn1C)N(c1c(C)cc(C)cc1Cl)CCC2
Second: Cc1c(C(=O)O)cnn1-c1c(Cl)cc(C(F)(F)F)cc1Cl
The melting point of the first is lower: 90 to 91 °C for the first, 187 to 189 °C for the second.

First: O=C1C=C(O)C(Cc2ccc(Br)cc2)S1 (centres undefined)
Second: Oc1ccc2cc(COCC3CC3)ccc2c1
The melting point of the first is higher: 156 to 157 °C for the first, 129 to 132 °C for the second.

CN(C)CCOc1ccccc1CC(=O)N1C[C@@H]2C(=O)CCC(c3ccccc3)(c3ccccc3)[C@@H]2C1 (racemic) and CCCCOc1ccc(C(=O)N2CCCCc3sccc32)cc1 cannot be ordered by melting point: 90 °C for the first, 87 to 90 °C for the second.

First: COc1cc(C)cc(OC)c1C(=O)CCl
Second: COc1ccc(OC)c2c1C(=O)c1ccc(C)cc1C2OC (centres undefined)
The melting point of the first is lower: 82 to 84 °C for the first, 177 to 179 °C for the second.

First: Cc1sc(Nc2cc(F)ccn2)nc1-c1cn[nH]c1
Second: CN1Cc2c(-c3noc(CCl)n3)ncn2-c2cccc(F)c2C1=O
The melting point of the first is higher: 283 °C for the first, 206 °C for the second.

Compared with CC(CN1CCOCC1)N1CCN(c2ccccc2)CC1 (centres undefined), CCOC(=O)c1ccc(C(=O)CN2CCN(c3ccncc3)CC2)cc1 is higher in melting point: 55 to 56 °C for the first, 147 to 149 °C for the second.

First: N#CCN1C(=O)COc2cc(F)c(-n3c(=O)n4n(c3=O)CCCC4)cc21
Second: NCCCN1CCC(c2noc3cc(F)ccc23)CC1
The melting point of the first is higher: 286 to 287 °C for the first, 59 to 62 °C for the second.

First: CCc1nnc2c(Cl)nc3ccccc3n12
Second: CCOc1nn(Cc2ccnc(OCc3cn4c(Cl)cccc4n3)c2)cc1CCC(=O)O
The melting point of the first is lower: 158 to 160 °C for the first, 160 to 161 °C for the second.

Compared with CC(C)(C)C(=O)Nc1cc2c(O)n(I)cnc-2n1, COc1cc(OC)nc(NC(=O)NS(=O)(=O)c2ccccc2C(C)=O)n1 is lower in melting point: > 240 °C for the first, 126 to 128 °C for the second.

Compared with OC[C@H]1OC[C@@H](n2c(NC3CC3)nc3cc(Cl)c(Cl)cc32)C[C@@H]1O, C=CCn1c(=S)n(C2OC(CO)C(O)C2O)c2nc(N)[nH]c(=O)c21 (centres undefined) is higher in melting point: 98 to 99 °C for the first, > 230 °C for the second.

First: C=CCC(C#N)(C#N)Cc1ccc(C(F)(F)F)cc1
Second: CCOC(=O)C(=O)c1cn(Cc2ccc(C(C)(C)C)cc2)c2cc(-c3ccc(C(F)(F)F)cc3)ccc12
The melting point of the first is lower: 80.2 °C for the first, 164 to 165 °C for the second.

First: C=CCc1c(O)ccc2ccc(=O)n(CC=C(C)C)c12
Second: O=c1c(-c2ccc[nH]2)coc2ccccc12
The melting point of the first is higher: 138 to 142 °C for the first, 134 to 135 °C for the second.

CCCN(CCCc1c[nH]c2ccc(F)cc12)C1COc2c(F)ccc(C(N)=O)c2C1 (centres undefined) and COC1(C)CC(C)(C)c2ccc(Oc3ccc([N+](=O)[O-])cc3)cc2O1 (centres undefined) are the same in melting point: 125 °C for the first, 125 °C for the second.

Compared with O=C(Nc1ccc(-n2nc(C(F)(F)F)cc2C(F)(F)F)cc1)N1CCOCC1, Fc1cncc(-n2ccc(Cl)n2)c1 is lower in melting point: 185 to 186 °C for the first, 77 to 82 °C for the second.

First: CNC(=O)C(=O)CCCCCCSc1nc(-c2ccccc2)cs1
Second: CCOC(C)OC1CCC2(C)C3=C(CCC2C1(C)C)C1=CCC(C(C)OCc2ccccc2)C1(C)CC3 (centres undefined)
The melting point of the first is lower: 107 to 108 °C for the first, 138 to 143 °C for the second.

First: Cn1nnc2sc(N)cc2c1=O
Second: Nc1cc(Cl)c(Cl)cc1-n1cccc1
The melting point of the first is higher: 190 to 194 °C for the first, 57 to 58 °C for the second.

Compared with N#CC1CN1C(=O)NC(=O)C(Cl)(Cl)Cl (centres undefined), CCCC(CCC)C(=O)O/N=C(\C)[C@H]1CC[C@H]2[C@@H]3CCC4=CC(=O)CC[C@]4(C)[C@H]3CC[C@]12C is lower in melting point: 150 to 152 °C for the first, 78 to 80 °C for the second.

In the case of O=C1CC(OC2CCCCO2)C(CC2CCCCC2)N1 (centres undefined), the melting point is reported as 110 to 115 °C.
